Earlier results on one molecule are cited in PMC9851200, “Multiparameter phenotypic screening for endogenous TFEB and TFE3 translocation identifies novel chemical series modulating lysosome function” (Autophagy, 2022).

What all share (design): method as in original PKIS2 published data
Series [1] concerns the target kinases (KINOMEscan panel) (Homo sapiens, UniProt Q9UBF8). The following applies: kinase PI4KB; Published KINOMEscan; ref original PKIS2 published data; cited from earlier work.
The target of series [2] is T1, kinases (KINOMEscan panel) (Homo sapiens, UniProt P52333).
T1 sequence (P52333 1-1124): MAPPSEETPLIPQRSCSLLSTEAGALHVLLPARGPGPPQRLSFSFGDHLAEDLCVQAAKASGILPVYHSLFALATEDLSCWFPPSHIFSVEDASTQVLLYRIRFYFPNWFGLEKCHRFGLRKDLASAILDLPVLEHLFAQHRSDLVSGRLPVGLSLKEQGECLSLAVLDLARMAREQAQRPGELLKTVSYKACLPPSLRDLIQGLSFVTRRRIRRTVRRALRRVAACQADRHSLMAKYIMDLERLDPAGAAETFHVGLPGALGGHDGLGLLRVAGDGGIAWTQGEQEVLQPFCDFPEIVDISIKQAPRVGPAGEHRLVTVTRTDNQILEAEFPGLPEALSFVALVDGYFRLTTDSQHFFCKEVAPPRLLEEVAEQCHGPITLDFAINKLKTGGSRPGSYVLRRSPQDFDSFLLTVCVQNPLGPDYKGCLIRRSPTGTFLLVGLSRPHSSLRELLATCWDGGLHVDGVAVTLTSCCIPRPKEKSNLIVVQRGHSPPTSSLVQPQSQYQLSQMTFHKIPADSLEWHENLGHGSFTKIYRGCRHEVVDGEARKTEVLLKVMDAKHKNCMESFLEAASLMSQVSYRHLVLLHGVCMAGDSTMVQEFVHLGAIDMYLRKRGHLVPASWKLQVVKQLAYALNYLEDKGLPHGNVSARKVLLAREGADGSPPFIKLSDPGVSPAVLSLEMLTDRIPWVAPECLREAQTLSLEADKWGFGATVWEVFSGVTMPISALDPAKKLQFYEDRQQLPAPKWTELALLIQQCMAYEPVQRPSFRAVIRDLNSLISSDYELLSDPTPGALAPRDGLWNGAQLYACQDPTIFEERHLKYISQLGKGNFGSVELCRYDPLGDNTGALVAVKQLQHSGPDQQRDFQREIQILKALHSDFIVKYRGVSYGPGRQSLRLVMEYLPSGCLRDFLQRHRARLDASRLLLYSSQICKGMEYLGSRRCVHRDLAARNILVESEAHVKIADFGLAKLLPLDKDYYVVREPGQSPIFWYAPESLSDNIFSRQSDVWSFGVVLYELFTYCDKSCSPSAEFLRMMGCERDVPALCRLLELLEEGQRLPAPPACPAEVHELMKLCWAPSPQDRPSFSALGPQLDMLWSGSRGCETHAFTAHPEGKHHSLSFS
Particulars: kinase JAK3(JH1domain-catalytic); Published KINOMEscan; ref original PKIS2 published data; cited from earlier work.

Series [3] concerns the target T2, kinases (KINOMEscan panel) (Homo sapiens, UniProt Q96L34).
T2 sequence (Q96L34 1-752): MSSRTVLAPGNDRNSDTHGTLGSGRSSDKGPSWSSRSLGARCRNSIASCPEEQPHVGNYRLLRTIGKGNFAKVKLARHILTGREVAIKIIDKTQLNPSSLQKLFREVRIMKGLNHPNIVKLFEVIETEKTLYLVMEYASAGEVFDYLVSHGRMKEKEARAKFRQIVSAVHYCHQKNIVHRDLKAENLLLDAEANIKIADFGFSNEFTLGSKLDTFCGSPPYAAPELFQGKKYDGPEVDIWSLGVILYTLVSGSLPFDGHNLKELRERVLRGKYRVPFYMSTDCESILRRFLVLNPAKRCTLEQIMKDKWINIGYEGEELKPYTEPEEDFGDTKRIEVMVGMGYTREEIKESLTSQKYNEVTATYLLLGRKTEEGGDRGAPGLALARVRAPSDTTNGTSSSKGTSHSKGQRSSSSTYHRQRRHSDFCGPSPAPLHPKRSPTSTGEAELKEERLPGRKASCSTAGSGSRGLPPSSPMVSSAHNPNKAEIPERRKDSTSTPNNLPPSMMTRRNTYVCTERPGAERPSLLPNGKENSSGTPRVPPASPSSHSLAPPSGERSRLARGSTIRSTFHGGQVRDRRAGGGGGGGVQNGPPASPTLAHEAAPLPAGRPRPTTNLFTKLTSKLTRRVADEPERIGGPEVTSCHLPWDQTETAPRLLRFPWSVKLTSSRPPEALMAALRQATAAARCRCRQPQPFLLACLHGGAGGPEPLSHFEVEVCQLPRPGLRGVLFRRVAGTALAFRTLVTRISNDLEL
The following applies: kinase MARK4; Published KINOMEscan; ref original PKIS2 published data; cited from earlier work.

Series [4] addresses kinases (KINOMEscan panel) (Homo sapiens, UniProt Q9P1W9). Particulars: PIM2; Published KINOMEscan; ref original PKIS2 published data; cited from earlier work.
Series [5] addresses kinases (KINOMEscan panel) (Homo sapiens, UniProt P31749). Particulars: kinase AKT1; Published KINOMEscan; ref original PKIS2 published data; cited from earlier work.
Series [6] deals with kinases (KINOMEscan panel) (Homo sapiens, UniProt P11362). The following applies: kinase FGFR1; Published KINOMEscan; ref original PKIS2 published data; cited from earlier work.
The target of series [7] is kinases (KINOMEscan panel) (Homo sapiens, UniProt O94921). Particulars: Published KINOMEscan; ref original PKIS2 published data; cited from earlier work.
The target of series [8] is kinases (KINOMEscan panel) (Homo sapiens, UniProt Q9H2X6). Particulars: Published KINOMEscan; ref original PKIS2 published data; cited from earlier work.
The target of series [9] is kinases (KINOMEscan panel) (Homo sapiens, UniProt P53667). The following applies: kinase LIMK1; Published KINOMEscan; ref original PKIS2 published data; cited from earlier work.
kinases (KINOMEscan panel) (Homo sapiens, UniProt P53667), sequence (P53667 whole entry): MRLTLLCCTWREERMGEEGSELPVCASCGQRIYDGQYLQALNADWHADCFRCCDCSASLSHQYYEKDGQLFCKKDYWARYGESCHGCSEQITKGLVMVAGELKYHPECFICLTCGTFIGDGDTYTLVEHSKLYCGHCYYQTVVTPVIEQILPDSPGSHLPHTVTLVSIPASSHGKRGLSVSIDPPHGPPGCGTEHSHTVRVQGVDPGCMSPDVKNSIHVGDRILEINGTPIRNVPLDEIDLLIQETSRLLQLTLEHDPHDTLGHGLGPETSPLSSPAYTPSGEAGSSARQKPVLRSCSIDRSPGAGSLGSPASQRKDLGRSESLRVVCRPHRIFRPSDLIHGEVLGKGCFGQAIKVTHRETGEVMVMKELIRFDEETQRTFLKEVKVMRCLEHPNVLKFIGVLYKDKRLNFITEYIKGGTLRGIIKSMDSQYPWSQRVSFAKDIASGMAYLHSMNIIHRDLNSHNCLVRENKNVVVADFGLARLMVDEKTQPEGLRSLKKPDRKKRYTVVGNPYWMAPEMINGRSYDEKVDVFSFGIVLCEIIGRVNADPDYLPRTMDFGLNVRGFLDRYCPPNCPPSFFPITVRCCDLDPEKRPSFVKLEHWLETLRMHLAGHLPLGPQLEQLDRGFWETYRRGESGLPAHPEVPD

kinases (KINOMEscan panel) (Homo sapiens, UniProt Q9UBF8), sequence (Q9UBF8 whole entry): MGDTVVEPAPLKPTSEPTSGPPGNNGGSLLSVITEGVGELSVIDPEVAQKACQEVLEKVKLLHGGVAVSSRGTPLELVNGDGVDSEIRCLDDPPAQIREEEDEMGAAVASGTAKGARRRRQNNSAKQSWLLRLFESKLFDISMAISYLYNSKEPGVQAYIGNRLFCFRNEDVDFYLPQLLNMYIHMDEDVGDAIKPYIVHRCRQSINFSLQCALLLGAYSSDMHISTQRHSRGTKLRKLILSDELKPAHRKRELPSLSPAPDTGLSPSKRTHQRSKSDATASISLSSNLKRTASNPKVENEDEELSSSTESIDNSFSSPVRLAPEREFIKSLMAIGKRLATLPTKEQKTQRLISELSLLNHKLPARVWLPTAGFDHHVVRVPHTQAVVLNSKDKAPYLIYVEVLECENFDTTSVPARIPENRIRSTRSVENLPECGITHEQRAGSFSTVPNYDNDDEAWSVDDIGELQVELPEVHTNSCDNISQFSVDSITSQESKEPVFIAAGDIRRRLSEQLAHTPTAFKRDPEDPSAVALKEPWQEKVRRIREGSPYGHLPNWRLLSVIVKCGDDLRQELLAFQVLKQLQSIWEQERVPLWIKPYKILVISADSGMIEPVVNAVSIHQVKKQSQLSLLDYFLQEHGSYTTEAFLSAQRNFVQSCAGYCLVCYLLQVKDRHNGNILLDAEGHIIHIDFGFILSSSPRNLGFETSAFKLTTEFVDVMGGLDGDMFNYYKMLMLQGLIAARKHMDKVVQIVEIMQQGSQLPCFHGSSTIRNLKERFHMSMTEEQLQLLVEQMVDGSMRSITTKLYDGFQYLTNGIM
kinases (KINOMEscan panel) (Homo sapiens, UniProt P11362), sequence (P11362 22-822): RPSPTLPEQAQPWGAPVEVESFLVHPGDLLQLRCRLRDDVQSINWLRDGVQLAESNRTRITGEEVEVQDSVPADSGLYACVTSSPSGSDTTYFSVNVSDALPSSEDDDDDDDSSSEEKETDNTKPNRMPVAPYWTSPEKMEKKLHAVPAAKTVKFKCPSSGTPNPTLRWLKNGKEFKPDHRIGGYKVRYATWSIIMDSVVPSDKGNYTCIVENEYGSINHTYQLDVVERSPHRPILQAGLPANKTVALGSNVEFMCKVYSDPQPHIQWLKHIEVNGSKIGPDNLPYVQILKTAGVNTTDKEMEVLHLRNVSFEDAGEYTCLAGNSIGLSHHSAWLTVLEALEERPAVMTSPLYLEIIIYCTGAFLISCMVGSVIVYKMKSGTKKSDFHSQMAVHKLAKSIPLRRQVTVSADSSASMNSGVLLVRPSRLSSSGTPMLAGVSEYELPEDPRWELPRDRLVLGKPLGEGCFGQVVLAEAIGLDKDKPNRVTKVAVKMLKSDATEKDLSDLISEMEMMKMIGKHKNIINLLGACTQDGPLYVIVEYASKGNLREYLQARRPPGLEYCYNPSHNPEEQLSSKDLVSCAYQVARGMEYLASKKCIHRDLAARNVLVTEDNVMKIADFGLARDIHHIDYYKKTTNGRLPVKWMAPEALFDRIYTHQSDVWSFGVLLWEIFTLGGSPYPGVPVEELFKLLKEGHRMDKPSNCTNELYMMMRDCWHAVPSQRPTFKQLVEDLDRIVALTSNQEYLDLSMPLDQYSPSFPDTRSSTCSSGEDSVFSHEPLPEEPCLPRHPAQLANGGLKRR
kinases (KINOMEscan panel) (Homo sapiens, UniProt P31749), sequence (P31749 whole entry): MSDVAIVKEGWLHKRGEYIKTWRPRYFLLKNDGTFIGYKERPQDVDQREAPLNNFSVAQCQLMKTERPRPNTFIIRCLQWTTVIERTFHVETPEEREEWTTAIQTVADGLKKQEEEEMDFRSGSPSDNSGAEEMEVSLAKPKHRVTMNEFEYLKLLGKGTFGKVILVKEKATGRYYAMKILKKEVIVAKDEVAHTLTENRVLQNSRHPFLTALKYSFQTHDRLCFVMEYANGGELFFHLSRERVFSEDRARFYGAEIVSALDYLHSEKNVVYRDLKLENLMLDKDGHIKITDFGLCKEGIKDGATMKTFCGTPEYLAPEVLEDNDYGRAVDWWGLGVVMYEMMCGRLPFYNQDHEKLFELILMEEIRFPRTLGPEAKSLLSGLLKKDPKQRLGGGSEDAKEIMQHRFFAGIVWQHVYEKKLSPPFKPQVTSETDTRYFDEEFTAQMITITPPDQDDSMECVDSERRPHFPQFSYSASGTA
kinases (KINOMEscan panel) (Homo sapiens, UniProt O94921), sequence (O94921 whole entry): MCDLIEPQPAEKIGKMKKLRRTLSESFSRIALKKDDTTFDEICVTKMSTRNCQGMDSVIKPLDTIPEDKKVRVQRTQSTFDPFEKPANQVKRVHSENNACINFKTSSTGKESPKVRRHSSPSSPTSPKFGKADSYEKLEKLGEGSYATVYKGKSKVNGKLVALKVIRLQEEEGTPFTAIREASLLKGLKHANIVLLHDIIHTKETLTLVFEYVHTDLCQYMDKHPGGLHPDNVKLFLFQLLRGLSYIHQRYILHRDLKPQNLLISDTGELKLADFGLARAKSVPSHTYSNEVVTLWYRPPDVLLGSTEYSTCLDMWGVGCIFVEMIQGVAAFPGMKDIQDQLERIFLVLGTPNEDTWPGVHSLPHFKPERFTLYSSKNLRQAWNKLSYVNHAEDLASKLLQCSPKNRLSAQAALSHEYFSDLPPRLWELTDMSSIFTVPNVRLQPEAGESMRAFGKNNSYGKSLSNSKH
kinases (KINOMEscan panel) (Homo sapiens, UniProt Q9P1W9), sequence (Q9P1W9 whole entry): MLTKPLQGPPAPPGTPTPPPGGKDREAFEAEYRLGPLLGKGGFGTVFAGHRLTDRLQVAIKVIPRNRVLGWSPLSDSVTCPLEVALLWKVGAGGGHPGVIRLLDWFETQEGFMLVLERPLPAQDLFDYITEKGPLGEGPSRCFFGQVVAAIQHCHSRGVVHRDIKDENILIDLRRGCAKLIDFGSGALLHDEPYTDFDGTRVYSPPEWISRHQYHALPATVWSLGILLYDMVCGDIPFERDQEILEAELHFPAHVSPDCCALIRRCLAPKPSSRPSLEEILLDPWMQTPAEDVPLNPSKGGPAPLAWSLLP
kinases (KINOMEscan panel) (Homo sapiens, UniProt Q9H2X6), sequence (Q9H2X6 whole entry): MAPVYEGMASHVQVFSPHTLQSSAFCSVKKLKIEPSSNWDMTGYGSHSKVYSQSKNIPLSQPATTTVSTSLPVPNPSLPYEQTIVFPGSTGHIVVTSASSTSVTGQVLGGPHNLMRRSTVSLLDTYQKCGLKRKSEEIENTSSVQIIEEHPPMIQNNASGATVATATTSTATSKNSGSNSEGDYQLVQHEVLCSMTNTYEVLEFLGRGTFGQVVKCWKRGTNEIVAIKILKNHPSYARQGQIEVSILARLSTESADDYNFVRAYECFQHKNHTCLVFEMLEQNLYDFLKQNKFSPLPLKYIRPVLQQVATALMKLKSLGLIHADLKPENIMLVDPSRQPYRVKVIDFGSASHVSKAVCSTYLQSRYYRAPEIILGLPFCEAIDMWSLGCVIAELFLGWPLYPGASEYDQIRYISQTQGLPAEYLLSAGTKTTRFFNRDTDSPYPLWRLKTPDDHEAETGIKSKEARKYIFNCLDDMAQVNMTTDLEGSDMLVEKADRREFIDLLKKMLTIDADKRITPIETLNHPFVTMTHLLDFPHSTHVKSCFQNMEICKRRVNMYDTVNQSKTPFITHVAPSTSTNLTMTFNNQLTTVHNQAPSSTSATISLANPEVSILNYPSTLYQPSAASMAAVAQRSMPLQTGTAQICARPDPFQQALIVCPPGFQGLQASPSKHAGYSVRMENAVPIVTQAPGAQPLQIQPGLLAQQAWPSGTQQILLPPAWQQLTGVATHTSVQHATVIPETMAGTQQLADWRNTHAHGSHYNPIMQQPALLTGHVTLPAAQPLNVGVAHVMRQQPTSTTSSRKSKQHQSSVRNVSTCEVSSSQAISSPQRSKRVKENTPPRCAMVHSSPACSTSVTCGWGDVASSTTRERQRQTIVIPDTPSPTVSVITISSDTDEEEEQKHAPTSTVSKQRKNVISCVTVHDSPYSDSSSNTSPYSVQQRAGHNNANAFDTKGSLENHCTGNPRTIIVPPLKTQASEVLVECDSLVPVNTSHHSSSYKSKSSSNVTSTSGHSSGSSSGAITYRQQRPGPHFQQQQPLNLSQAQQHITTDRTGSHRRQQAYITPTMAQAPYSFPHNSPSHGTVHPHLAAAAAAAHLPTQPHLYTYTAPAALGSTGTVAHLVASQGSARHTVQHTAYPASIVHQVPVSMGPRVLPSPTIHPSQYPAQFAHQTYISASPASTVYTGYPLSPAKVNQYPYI

Consider `Cc1cccc(-c2nc(Nc3ccncc3)c3ccccc3n2)n1` [NK215], for which, in series [1], the “KINOMEscan PI4KB” value is 0. Also, in series [2], the “KINOMEscan JAK3(JH1domain-catalytic)” value is 0. Moreover, the “KINOMEscan MARK4” value in series [3] is given as 25. Further, the “KINOMEscan PIM2” value in series [4] was 18. Also, the “KINOMEscan AKT1” value in [5] is on record as 20. Besides, the “KINOMEscan FGFR1” value in series [6] is reported as 5. For the same molecule, in [7], the “KINOMEscan CDK14” value was 0. Further, in [8], the “KINOMEscan HIPK2” value was 0. Moreover, the “KINOMEscan LIMK1” value in series [9] was 12.
